Laboratory results: PubChem BioAssay (NCI)
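Cells were grown in 96-well plates and exposed to each compound for 48 hours at five concentrations; endpoints were interpolated linearly between bracketing concentrations, or set to the highest concentration if not reached. TGI denotes the concentration required for complete inhibition of growth.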

Experiments:
Assay in all cases: inhibition of tumour cell growth, NCI panel, 48 h
[1] = test system: SK-MEL-2 melanoma
[2] = test system: COLO 205 colon
[3] = test system: M14 melanoma
[4] = test system: TK-10 renal
[5] = test system: HOP-62 NSCLC
[6] = test system: SNB-75 CNS
[7] = test system: DMS 114 small cell lung
[8] = test system: HCC-2998 colon
[9] = test system: KM12 colon
[10] = test system: MALME-3M melanoma
[11] = test system: XF 498 CNS
[12] = test system: UACC-257 melanoma
[13] = test system: RXF 393 renal
[14] = test system: LXFL 529 NSCLC
[15] = test system: SK-MEL-5 melanoma
[16] = test system: CAKI-1 renal
[17] = test system: SF-268 CNS
[18] = test system: SN12C renal
[19] = test system: IGROV1 ovarian
[20] = test system: HL-60(TB) leukemia
[21] = test system: EKVX NSCLC
[22] = test system: ACHN renal
[23] = test system: SK-MEL-28 melanoma
[24] = test system: SR leukemia
[25] = test system: OVCAR-4 ovarian
[26] = test system: U251 CNS
[27] = test system: NCI-H226 lung
[28] = test system: MOLT-4 leukemia
[29] = test system: HT29 colon
[30] = test system: KM20L2 colon
[31] = test system: CCRF-CEM leukemia
[32] = test system: OVCAR-3 ovarian
[33] = test system: SK-OV-3 ovarian
[34] = test system: SF-539 CNS
[35] = test system: A549 NSCLC
[36] = test system: NCI-H460 lung
[37] = test system: HCT-15 colon
[38] = test system: OVCAR-8 ovarian
[39] = test system: NCI-H522 lung
[40] = test system: SF-295 CNS
[41] = test system: LOX IMVI melanoma
[42] = test system: M19-MEL melanoma
[43] = test system: K-562 leukemia
[44] = test system: NCI-H23 lung
[45] = test system: DMS 273 small cell lung
[46] = test system: OVCAR-5 ovarian
[47] = test system: HOP-92 NSCLC
[48] = test system: SW-620 colon
[49] = test system: DLD-1 colon
[50] = test system: 786-0 renal
[51] = test system: RPMI-8226 leukemia
[52] = test system: UO-31 renal
[53] = test system: HCT-116 colon
[54] = test system: DU-145 prostate
[55] = test system: MCF7 breast
[56] = test system: MDA-MB-435
[57] = test system: UACC-62 melanoma
[58] = test system: BT-549 breast
[59] = test system: MDA-MB-231 breast
[60] = test system: NCI/ADR-RES ovarian
[61] = test system: SNB-19 CNS
[62] = test system: T-47D breast
[63] = test system: PC-3 prostate
[64] = test system: A498 renal
[65] = test system: HS 578T breast
[66] = test system: MDA-N
[67] = test system: SNB-78 CNS
[68] = test system: HOP-18 NSCLC

## NC(=O)CCCC(NCc1c2ccccc2nc2ccccc12)C(=O)O (centres undefined)
[1]
  TGI: > 100 µM
[2]
  TGI: > 100 µM
[3]
  TGI: > 100 µM
[4]
  TGI: > 100 µM
[5]
  TGI: > 100 µM
[6]
  TGI: > 100 µM
[7]
  TGI: > 100 µM
[8]
  TGI: > 100 µM
[9]
  TGI: > 100 µM
[10]
  TGI: > 100 µM
[11]
  TGI: 61.8 µM
[12]
  TGI: > 100 µM
[13]
  TGI: > 100 µM
[14]
  TGI: > 100 µM
[15]
  TGI: > 100 µM
[16]
  TGI: 96.2 µM
[17]
  TGI: > 100 µM
[18]
  TGI: > 100 µM
[19]
  TGI: > 100 µM
[20]
  TGI: 62.2 µM
[21]
  TGI: > 100 µM
[22]
  TGI: > 100 µM
[23]
  TGI: > 100 µM
[24]
  TGI: > 100 µM
[25]
  TGI: 41.7 µM
[26]
  TGI: > 100 µM
[27]
  TGI: > 100 µM
[28]
  TGI: 66.2 µM
[29]
  TGI: > 100 µM
[30]
  TGI: > 100 µM
[31]
  TGI: 71.6 µM
[32]
  TGI: > 100 µM
[33]
  TGI: > 100 µM
[34]
  TGI: > 100 µM
[35]
  TGI: > 100 µM
[36]
  TGI: > 100 µM
[37]
  TGI: > 100 µM
[38]
  TGI: > 100 µM
[39]
  TGI: 67.7 µM
[40]
  TGI: > 100 µM
[41]
  TGI: > 100 µM
[42]
  TGI: > 100 µM
[43]
  TGI: > 100 µM
[44]
  TGI: > 100 µM
[45]
  TGI: 86.7 µM
[46]
  TGI: > 100 µM
[47]
  TGI: 85.7 µM
[48]
  TGI: > 100 µM
[49]
  TGI: > 100 µM
[50]
  TGI: > 100 µM
[51]
  TGI: 93.6 µM

## CC(=O)NC1=C(OS(=O)(=O)c2ccc(C)cc2)CN(C)C1=O
[1]
  TGI: 9.63 µM
[2]
  TGI: 25.3 µM
[3]
  TGI: 20 µM
[52]
  TGI: 14.2 µM
[4]
  TGI: 7.97 µM
[5]
  TGI: 11.9 µM
[6]
  TGI: 15.1 µM
[8]
  TGI: 11.5 µM
[53]
  TGI: 12 µM
[9]
  TGI: 14.3 µM
[10]
  TGI: 6.21 µM
[12]
  TGI: 11.8 µM
[13]
  TGI: 13.3 µM
[15]
  TGI: 18.4 µM
[16]
  TGI: 14 µM
[54]
  TGI: 16.7 µM
[17]
  TGI: 45 µM
[55]
  TGI: 11.7 µM
[56]
  TGI: 16.7 µM
[18]
  TGI: 16.4 µM
[19]
  TGI: 12.1 µM
[20]
  TGI: 7.09 µM
[21]
  TGI: 14.2 µM
[22]
  TGI: 12.3 µM
[57]
  TGI: 21.2 µM
[23]
  TGI: > 42.7 µM
[24]
  TGI: > 100 µM
[58]
  TGI: 12 µM
[25]
  TGI: 20.9 µM
[26]
  TGI: 8.75 µM
[27]
  TGI: 62.7 µM
[28]
  TGI: 17.9 µM
[29]
  TGI: 20 µM
[31]
  TGI: 4.28 µM
[32]
  TGI: 8.14 µM
[33]
  TGI: 21 µM
[34]
  TGI: 5.84 µM
[59]
  TGI: 23.1 µM
[35]
  TGI: 15.3 µM
[60]
  TGI: 44.9 µM
[36]
  TGI: 7.77 µM
[37]
  TGI: 13.2 µM
[38]
  TGI: 20.3 µM
[39]
  TGI: 9.74 µM
[40]
  TGI: 13.9 µM
[41]
  TGI: 17.5 µM
[43]
  TGI: 28.3 µM
[61]
  TGI: 14.9 µM
[44]
  TGI: 15.3 µM
[62]
  TGI: 9.35 µM
[46]
  TGI: 32 µM
[47]
  TGI: 8.49 µM
[48]
  TGI: > 37.3 µM
[50]
  TGI: 16.5 µM
[63]
  TGI: 10.1 µM
[64]
  TGI: 18 µM
[65]
  TGI: > 42.2 µM
[66]
  TGI: 24.5 µM
[51]
  TGI: 5.77 µM

## CN(C)c1nc(=Nc2ccc3ccccc3c2)ss1
[1]
  TGI: > 100 µM
[2]
  TGI: 23.2 µM
[3]
  TGI: > 100 µM
[52]
  TGI: > 100 µM
[4]
  TGI: 71.1 µM
[5]
  TGI: > 100 µM
[6]
  TGI: > 100 µM
[7]
  TGI: 41.3 µM
[8]
  TGI: > 100 µM
[67]
  TGI: > 100 µM
[53]
  TGI: > 100 µM
[9]
  TGI: > 100 µM
[10]
  TGI: > 100 µM
[12]
  TGI: 66.8 µM
[13]
  TGI: > 100 µM
[14]
  TGI: > 100 µM
[15]
  TGI: 29.9 µM
[16]
  TGI: > 100 µM
[17]
  TGI: > 100 µM
[18]
  TGI: > 100 µM
[19]
  TGI: > 100 µM
[20]
  TGI: 54.7 µM
[22]
  TGI: > 100 µM
[57]
  TGI: > 100 µM
[23]
  TGI: > 100 µM
[24]
  TGI: 75.3 µM
[25]
  TGI: > 100 µM
[26]
  TGI: > 100 µM
[27]
  TGI: > 100 µM
[28]
  TGI: 20.9 µM
[30]
  TGI: > 100 µM
[31]
  TGI: 73.5 µM
[32]
  TGI: > 100 µM
[33]
  TGI: > 100 µM
[34]
  TGI: > 100 µM
[35]
  TGI: > 100 µM
[36]
  TGI: > 100 µM
[37]
  TGI: > 100 µM
[38]
  TGI: > 100 µM
[39]
  TGI: 65.9 µM
[43]
  TGI: > 100 µM
[61]
  TGI: > 100 µM
[68]
  TGI: > 100 µM
[48]
  TGI: > 100 µM
[49]
  TGI: > 100 µM
[50]
  TGI: > 100 µM
[64]
  TGI: > 100 µM
[51]
  TGI: 52.5 µM

## N#C/C(=C\c1ccccc1)C(=O)Nc1nnc(-c2ccccc2)o1
[1]
  TGI: > 100 µM
[2]
  TGI: 80.4 µM
[3]
  TGI: > 100 µM
[52]
  TGI: > 100 µM
[4]
  TGI: > 100 µM
[5]
  TGI: > 100 µM
[6]
  TGI: > 100 µM
[8]
  TGI: > 100 µM
[53]
  TGI: > 100 µM
[9]
  TGI: > 100 µM
[10]
  TGI: > 100 µM
[12]
  TGI: 87.4 µM
[13]
  TGI: > 100 µM
[15]
  TGI: 38.3 µM
[16]
  TGI: 73.2 µM
[54]
  TGI: > 100 µM
[17]
  TGI: > 100 µM
[55]
  TGI: > 100 µM
[56]
  TGI: > 100 µM
[18]
  TGI: > 100 µM
[19]
  TGI: > 100 µM
[20]
  TGI: 40.9 µM
[21]
  TGI: > 100 µM
[22]
  TGI: > 100 µM
[57]
  TGI: 53.7 µM
[23]
  TGI: > 100 µM
[24]
  TGI: 93.2 µM
[58]
  TGI: > 100 µM
[25]
  TGI: > 100 µM
[26]
  TGI: > 100 µM
[27]
  TGI: > 100 µM
[28]
  TGI: > 100 µM
[29]
  TGI: > 100 µM
[31]
  TGI: 50.6 µM
[32]
  TGI: 66.3 µM
[33]
  TGI: > 100 µM
[59]
  TGI: > 100 µM
[35]
  TGI: > 100 µM
[60]
  TGI: > 100 µM
[37]
  TGI: > 100 µM
[38]
  TGI: > 100 µM
[39]
  TGI: > 100 µM
[40]
  TGI: > 100 µM
[41]
  TGI: > 100 µM
[43]
  TGI: > 100 µM
[44]
  TGI: > 100 µM
[62]
  TGI: > 100 µM
[46]
  TGI: > 100 µM
[47]
  TGI: > 100 µM
[48]
  TGI: > 100 µM
[50]
  TGI: > 100 µM
[63]
  TGI: > 100 µM
[64]
  TGI: 72.7 µM
[65]
  TGI: > 100 µM
[66]
  TGI: > 100 µM
[51]
  TGI: 62.6 µM
